Drawing on BindingDB's records for doi:10.1021/jm060314i (Cnrs, 2006), this text covers IC50 for three compounds.

Structures are written as SMILES. pIC50: −log10 of the molar value. Counter-ions that a name gives are not always drawn.

In this assay the target is 5L hepatoma cell line (Rattus norvegicus). The assay is described as follows: Survival of rat 5L hepatoma cells after 48 hrs by MTS reduction assay.
With `CN(C)CCO/N=C1/C(c2c(O)[nH]c3c(Br)cccc23)=Nc2ccccc21` [(2'Z,3'E)-7-bromoindirubin-3'-[O-(2-dimethylaminoethyl)oxime] hydrochloride], the negative-log IC50 (pIC50) (in general, −log10 of the IC50, conventionally taken in molar units) is under 4.52. The value for `CN(C)CCO/N=C1/C(c2c(O)[nH]c3c(Br)cccc23)=Nc2ccccc21` [(2'Z,3'E)-7-bromoindirubin-3'-[O-(2-dimethylaminoethyl)oxime]] was 4.60; that for `Oc1[nH]c2c(Br)cccc2c1C1=Nc2ccccc2/C1=N\OCCN1CCCC1` [(2'Z,3'E)-7-bromoindirubin-3'-[O-(2-pyrrolidin-1-ylethyl)oxime] hydrochloride] was under 4.52.
